According to US7884133B2, “Pharmaceutical compositions containing (+) cannabidioil and derivatives thereof and some such novel derivatives” (priority 2003, dated 2011):
Entries after “also recorded” stand apart in the source; their conditions may differ. Where two headings read alike, the source gives them in different places.

What was measured:
female Sabra mice [1] = details: Hanus (1999); antagonized by SR144528, not by SR141716A; cited from earlier work
CB1 receptor [2] = biological target: T1, CB1 receptor (Rattus norvegicus, UniProt P20272); assay: CB1 receptor binding; details: for Ki: first value of CB1/CB2 cell
CB2 receptor [3] = biological target: T2, CB2 receptor (Homo sapiens, UniProt P34972); assay: CB2 receptor binding; details: for Ki: second value of CB1/CB2 cell
female Sabra mice [4] = assay: Tetrad: ambulation (horizontal movements) in an open field; assay type: in vivo; details: 20 mg/kg i.p., open field 8 min, 30 or 60 min after injection; normalized; * = P<0.05 vs vehicle
Method: (§1) Mice were injected with antagonist 90 minutes before testing and/or with agonist 60 minutes before testing in a series of four assays which reflect central cannabinoid activity [Martin (1991) id. ibid.; modified by Fride, E. and R. Mechoulam (1993) id. ibid.]. This “tetrad” consists of, consecutively, ambulation and rearing in an open field (8 minutes), immobility on an elevated ring of 5 cm diameter (4 minutes), rectal temperature (Yellow

female Sabra mice [5] = assay: Tetrad: rearing (vertical movements) in an open field; assay type: in vivo; details: 20 mg/kg i.p., open field 8 min; normalized; * = P<0.05 vs vehicle
Method: as §1

female Sabra mice [6] = assay: Tetrad: catalepsy (immobility) on an elevated ring; assay type: in vivo; details: 20 mg/kg i.p., elevated ring 4 min; normalized; * = P<0.05 vs vehicle
Method: as §1

female Sabra mice [7] = assay: Hot plate analgesia (centrally mediated pain); assay type: in vivo; details: 20 mg/kg i.p., hot plate 55° C., max 45 sec; normalized; * = P<0.05 vs vehicle
Method: Pain perception on a hot plate, is considered to be mediated by a central mechanism whereas the second, late phase of the response to an implantar injection of formalin reflects inflammatory pain mechanisms [Tjolsen, A. and Hole (1997) id. ibid.].
Thus, central pain perception was assessed by the analgesic response on a hot plate (55° C., Columbus Instruments, OH, USA). Peripheral pain was measured by the response to implantar injection of formalin (4%) 45 minutes after injection of the drug.

female Sabra mice [8] = assay: Hypothermia (rectal temperature); assay type: in vivo; details: 20 mg/kg i.p., * = P<0.05 vs vehicle
Method: as §1
(§2) Defecation was measured as the number of fecal pellets voided in the open field. In some experiments (as indicated below), fecal pellets and body temperature were assessed for a prolonged period (3 hr).

female Sabra mice [9] = assay: Intestinal motility (defecation, number of fecal pellets); assay type: in vivo; details: 20 mg/kg i.p.; for Inhibition of Intesitinal Motility (% MPE): defecation in open field 8 min, normalized, * = P<0.05 vs vehicle; for inhibition of defecation / intestinal motility, in words: 60 minutes after injection
Method: as §2

[10] = tested on: arachidonic acid-induced ear inflammation in the mouse; assay: Arachidonic acid induced inflammation of the external ear; assay type: in vivo; details: for inhibition of arachidonic acid-induced ear inflammation, in words: i.p., 10 to 40 mg/kg, ear thickness every 15 minutes for 90 minutes
Method: Ear inflammation was measured by assessing ear tissue swelling after topical application of arachidonic acid, as described previously [Hanus (1999) id. ibid.]. Briefly, at various times after i.p. drug injections, arachidonic acid was applied to the inner surface of one ear (4.5 mg dissolved in […] ethanol). The opposite ear served as control (5 ethanol). Ear thickness was determined (in 0.01-mm units) by using a dial thickness gauge (Mitutoyo, Japan) every 15 minutes for 90 minutes, starting immediately after arachidonic acid application.

[11] = tested on: CB1−/− receptor knockout mice; assay: Intestinal motility in CB1−/− receptor knockout mice; assay type: in vivo; details: 20 mg/kg i.p., defecation rate recorded for 3 hours
Method: Female CB1−/− knockout mice were injected i.p. with (+)-7-OH-CBD-DMH, (+)-CBD-DMH or Δ^9-THC (20 mg/kg). Intestinal motility (defecation rate) was recorded for a period of 3 hours.
(§3) Female Sabra mice (2-3 months of age) were purchased from Harlan, Israel. Breeding pairs of CB1−/− receptor knockout mice were provided by Prof. A. Zimmer, University Clinic Bonn, Germany.
as §2

female Sabra mice [12] = assay: Tetrad overall (central cannabinoid activity); assay type: in vivo; details: 20 mg/kg i.p., tested 60 minutes later
Method: Central activity of the compounds of the invention was assessed in the “tetrad”, which is a series of assays commonly used to measure central cannabimimmetic effects [Martin, B. R. et al. (1991) Pharmacol. Biochem. Behav. 40(3): 471-8; Fride, E. and C. Sanudo-Pena (2002) id. ibid.]. Three parameters for peripheral activity were used. Since gastrointestinal transit is regulated locally in the periphery rather than by centrally located CB1 receptors [Izzo (2000) id. ibid.; Landi (2002) id. ibid.], intestinal motility was one of the parameters used, and peripheral cannabinoid effects was measured as rates of defecation (see Example 29).
as §1

female Sabra mice [13] = assay: Intestinal motility after antagonist pre-treatment (SR141716A, SR144528, capsazepine); assay type: in vivo
Method: (SR1, 1 mg/kg). SR1 was injected (i.p.) 30 minutes before the agonist. 60 minutes after (+)CBD-DMH the number of fecal pellets was recorded.
(SR2, 1 mg/kg). SR2 was injected (i.p.) 30 minutes before the agonist. 60 minutes after (+)-CBD-DMH the number of fecal pellets was recorded.
as §1, §2

[14] = tested on: CB1−/− receptor knockout mice; assay: Central effects in CB1−/− receptor knockout mice; assay type: in vivo; details: not shown
Method: as §3, §1

CB1 receptor [15] = biological target: T1, CB1 receptor; details: cited from earlier work
CB2 receptor [16] = biological target: T2, CB2 receptor; details: cited from earlier work

T1 sequence (P20272 whole entry): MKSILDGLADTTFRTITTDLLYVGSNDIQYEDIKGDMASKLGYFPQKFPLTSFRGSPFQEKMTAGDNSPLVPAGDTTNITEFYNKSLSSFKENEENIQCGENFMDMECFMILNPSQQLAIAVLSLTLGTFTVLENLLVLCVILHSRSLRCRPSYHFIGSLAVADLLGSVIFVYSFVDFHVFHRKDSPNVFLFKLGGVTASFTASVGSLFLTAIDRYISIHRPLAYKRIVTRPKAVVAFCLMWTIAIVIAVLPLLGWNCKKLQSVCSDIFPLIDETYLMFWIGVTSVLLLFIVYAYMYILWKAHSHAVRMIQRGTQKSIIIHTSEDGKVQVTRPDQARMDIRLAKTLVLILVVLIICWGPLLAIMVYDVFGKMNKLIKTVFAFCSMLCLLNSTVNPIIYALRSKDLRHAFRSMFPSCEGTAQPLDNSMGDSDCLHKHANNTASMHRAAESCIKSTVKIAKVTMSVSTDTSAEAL
T2 sequence (P34972 whole entry): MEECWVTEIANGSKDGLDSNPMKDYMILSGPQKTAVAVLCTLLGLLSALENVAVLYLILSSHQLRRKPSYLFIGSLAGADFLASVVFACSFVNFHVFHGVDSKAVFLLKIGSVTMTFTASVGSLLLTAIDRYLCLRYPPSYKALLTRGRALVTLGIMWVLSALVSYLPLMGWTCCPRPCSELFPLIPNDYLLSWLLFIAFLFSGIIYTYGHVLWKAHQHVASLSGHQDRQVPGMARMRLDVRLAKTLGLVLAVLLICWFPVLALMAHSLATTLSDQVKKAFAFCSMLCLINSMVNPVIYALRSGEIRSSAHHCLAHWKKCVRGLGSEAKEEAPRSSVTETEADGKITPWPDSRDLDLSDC

Compound | Ki (CB1 receptor [2]) | Ki (CB2 receptor [3]) | Horizontal Movements (% MPE) (female Sabra mice [4]) | Vertical Movements (% MPE) (female Sabra mice [5]) | Catalepsy (Freezing of Movement) (% MPE) (female Sabra mice [6]) | Analgesia (Hot Plate) (% MPE) (female Sabra mice [7]) | Hypothermia (Δ-Body Temp.) (female Sabra mice [8]) | Inhibition of Intesitinal Motility (% MPE) (female Sabra mice [9]) | other results
CCCCCCC(C)(C)c1cc(OC)c([C@@H]2C=C(CO)[C@@H]3C[C@H]2C3(C)C)c(OC)c1 [HU-308] |  |  |  |  |  |  |  |  | inhibition of defecation (earlier report) (female Sabra mice [1]): inhibited defecation
C=C(C)C1CCC(CO)=CC1c1c(O)cc(CCCCC)cc1O (single isomer, unassigned; (+)) [+70H−CBD, (+)-7-Hydroxy CBD] | 5.3 nM | 101 nM | 107 % MPE | 81 % MPE | 0 % MPE | 77 % MPE | 0.3 °C | 89* % MPE | 
C=C(C)C1CCC(CO)=CC1c1c(O)cc(C(C)(C)CCCCCC)cc1O (single isomer, unassigned; (+)) [+70H−CBD−DMH, (+)-7-Hydroxy CBD-DMH] |  |  | 01* % MPE | 0* % MPE | 95* % MPE | 100* % MPE | −5.2* ° C. | 100* % MPE | inhibition of defecation / intestinal motility, in words (female Sabra mice [9]): completely blocked; inhibition of arachidonic acid-induced ear inflammation, in words ([10]; listed as (+)7OH-CBD-DMH): effectively prevented ear inflammation; inhibition of arachidonic acid-induced ear inflammation, in words ([10]; listed as (+)-7-OHCBD-DMH): inhibited ear inflammation; effect on intestinal motility in CB1−/− knockout mice ([11]; listed as (+)-7-OH-CBD-DMH): None of the drugs assessed ((+)-CBD-DMH, (+)-7-OH-CBD-DMH and Δ^9-THC had any effect; also recorded: no effects; central effects (tetrad), in words (female Sabra mice [12]): very potent; central effects (tetrad), in words (female Sabra mice [12]; listed as (+)-7-OH-CBD-DMH): had central effects in all assays of the tetrad; central effects (tetrad), in words (female Sabra mice [12]; listed as (+)-7OH-CBD-DMH): significant and consistent central activity; reversal of inhibition of defecation by CB1 antagonist SR141716A (female Sabra mice [13]; agonist 20 mg/kg, SR141716A 1 mg/kg i.p. 30 minutes before agonist): effectively antagonized; reversal of inhibition of defecation by CB2 antagonist SR144528 (female Sabra mice [13]; agonist 20 mg/kg, SR144528 1 or 3 mg/kg i.p. 30 minutes before agonist): not at all; effect of VR1 antagonist capsazepine on inhibition of defecation (female Sabra mice [13]; data not shown): did not affect; central effects in CB1−/− receptor knockout mice [14]: None of the drugs assessed ((+)-CBD-DMH, (+)-7-OH-CBD-DMH and Δ^9-THC had any effect; Ki (CB1 receptor [15]; first value of CB1/CB2 cell, data from Bisogno et al., 2001, read-out: CB1 Receptor Binding (Ki)): 2.5 nM; Kd (CB1 receptor [15]; previously reported, Bisogno et al. 2001, read-out: affinity for the CB1 receptor (Kd)): 2.5 nM; Kd (CB2 receptor [16]; previously reported, Bisogno et al. 2001, read-out: affinity for the CB2 receptor (Kd)): 44 nM; Ki (CB2 receptor [16]; second value of CB1/CB2 cell, data from Bisogno et al., 2001, read-out: CB2 Receptor Binding (Ki)): 44 nM
COc1ccc2c(c1)c(CC(=O)O)c(C)n2C(=O)c1ccc(Cl)cc1 [Indomethacin, reference compound] |  |  |  |  |  |  |  |  | potency compared to indomethacin in ear inflammation, in words ([10]; (+)-CBD-DMH 40 or 10 mg/kg vs indomethacin 20 mg/kg): Equal potencies
C=C(C)C1CCC(C)=CC1c1c(O)cc(CCCCC)cc1O (single isomer, unassigned; (+)) [+CBD, (+)-CBD] |  |  | 108 % MPE | 103 % MPE | 05 % MPE | 13 % MPE | 0.5 °C | 13 % MPE | CB1 receptor binding, in words (CB1 receptor [2]): weakly binds; CB2 receptor binding, in words (CB2 receptor [3]): weakly binds; inhibition of defecation / intestinal motility, in words (female Sabra mice [9]): had no central neither peripheral (intestinal motility) effects; also recorded: Lack of effects; inhibition of arachidonic acid-induced ear inflammation, in words [10]: had no effect; central effects (tetrad), in words (female Sabra mice [12]): had no central neither peripheral (intestinal motility) effects; also recorded: Lack of effects
CCCCCc1cc(O)c2c(c1)OC(C)(C)[C@@H]1CCC(C)=C[C@@H]21 [Δ^9−THC, Delta-9 tetrahydrocannabinol, reference compound] |  |  | 44* % MPE | 12* % MPE | 44* % MPE | 97* % MPE | −2.1* ° C. | 100* % MPE | effect on intestinal motility in CB1−/− knockout mice [11]: None of the drugs assessed ((+)-CBD-DMH, (+)-7-OH-CBD-DMH and Δ^9-THC had any effect; also recorded: No significant effects; central effects in CB1−/− receptor knockout mice [14]: None of the drugs assessed ((+)-CBD-DMH, (+)-7-OH-CBD-DMH and Δ^9-THC had any effect
C=C(C)C1CCC(C(=O)O)=CC1c1c(O)cc(CCCCC)cc1O (single isomer, unassigned) [+COOH−CBD, 7-Nor-carboxy CBD] | 13.2 nM | 322 nM | 80 % MPE | 71 % MPE | 06 % MPE |  | −0.6 °C | 100* % MPE | 
C=C(C)C1CCC(C(=O)O)=CC1c1c(O)cc(C(C)(C)CCCCCC)cc1O (single isomer, unassigned; (+)) [+COOH−CBD−DMH, (+)-7-Nor-carboxy CBD DMH] | 5.8 nM | 156 nM | 102 % MPE | 100 % MPE | 0 % MPE | 09 % MPE | 0.2 °C | 100* % MPE | 
